Measured values: patent US20090018176A1, “FUNGICIDE COMPOSITION COMPRISING AN ARYLAMIDINE DERIVATIVE AND TWO KNOWN FUNGICIDE COMPOUNDS” (Bayer CropScience AG, priority 2005, published 2009)

Assays:
[1] = tested on: Puccinia recondita; assay: In vivo preventive test on Puccinia recondita f. sp. tritici (wheat brown rust); conditions: 50 g/ha of each active compound, evaluation 12 days after inoculation, 0% = control, 100% = no infection
Method: In Vivo Preventive Test on Puccinia Recondite f. Sp. Tritici (Wheat Brown Rust) [table] To produce a suitable preparation of active compound, 1 part by weight of active compound or active compound combination is mixed with the stated amounts of solvent and emulsifier, and the concentrate is diluted with water to the desired concentration. To test for preventive activity, young plants are […] at the stated rate of application. The plants remain for 24 hours in an incubation cabinet at 20° C. and a relative atmospheric humidity of 100%. The plants are placed in a greenhouse at a temperature of approximately 20° C. and a relative atmospheric humidity of approximately 80% to promote the development of rust pustules. Evaluation is carried out 12 days after the inoculation. 0% means an efficacy which corresponds to that of the control, whereas an efficacy of 100% means that no infection is observed. […] Compound 1 according to the invention is N-ethyl-N-methyl-N′-[4-(3-t-butyl-4-chlorphenoxy)-2,5 xylyl]-formamidine.

[2] = tested on: Pyrenophora teres; assay: In vivo curative test on Pyrenophora teres (barley); conditions: 50 g/ha of each active compound, evaluation 12 days after inoculation, 0% = control, 100% = no infection
Method: In Vivo Curative Test on Pyrenophora Teres (Barley) [table] To produce a suitable preparation of active compound, 1 part by weight of active compound or active compound combination is mixed with the stated amounts of solvent and emulsifier, and the concentrate is diluted with water to the desired concentration. To test for curative activity, young plants are sprayed with a conidia suspension of Pyrenophora teres. The plants remain in an incubation cabinet at 20° C. and 100% relative atmospheric humidity for 48 hours. The plants are then sprayed with the preparation of active compound at the stated application rate. The plants are placed in a greenhouse at a temperature of about 20° C. and a relative atmospheric humidity of about 80%. Evaluation is carried out 12 days after the inoculation. 0% means an efficacy which corresponds to that of the control, whereas an efficacy of 100% means that no infection is observed.

Row | SMILES | Experimental efficacy (%) [1] [%] | Experimental efficacy (%) [2] [%]
1 | CCN(C)C=Nc1cc(C)c(Oc2ccc(Cl)c(C(C)(C)C)c2)cc1C [compound 1, N-ethyl-N-methyl-N′-[4-(3-t-butyl-4-chlorphenoxy)-2,5 xylyl]-formamidine] | 22 | 0
2 | OC(Cc1ccccc1Cl)(Cn1nc[nH]c1=S)C1(Cl)CC1 (stereo not drawn) [prothioconazole] |  | 0
3 | CCCN(CC)CC1COC2(CCC(C(C)(C)C)CC2)O1 (stereo not drawn) [spriroxamine, spiroxamine] | 0 | 50
4 | CC(C)(C)C(O)(CCc1ccc(Cl)cc1)Cn1cncn1 (stereo not drawn) [tebuconazole] | 78 | 
